The results in this text go back to patent publication US20250032580A1, “USE OF ADNF POLYPEPTIDES IN THERAPY” (RAMOT AT TEL-AVIV UNIVERSITY LTD., priority 2021, published 2025).

Common to all, as to type: in vivo, mouse
For assay [1], the system named is Tyr mice. Description: Behavioral assessments (odor discrimination and others). Details: key to NAP efficacy: cognitive impairments, behavioral deficits: corrections by NAP treatment (+). The method, then: Animals—Animals were housed under a 12-hour light/dark cycle, with food and water ad-libitum. Mouse pups were subcutaneously administrated with NAP [having an amino acid sequence NAPVSIPQ (SEQ ID NO: 2), 25 μg NAP/1 ml saline] as described (8, 12). At 21 days of age mice were administered daily intranasal NAP in vehicle solution (“DD”—7.5 mg/ml of NaCl, 1.7 mg/ml of citric acid, 3 mg/ml of disodium phosphate dihydrate, and 0.2 mg/ml of 50% benzalkonium chloride solution) (0.5 μg NAP/5p1 DD) (8, 9, 12, and U.S. Pat. No. 10,912,819 to Gozes). These mice continued to behavioral analysis as described hereinbelow. The noninvasive intranasal route was chosen as these experiments required daily handling and administration. Age (weeks) of mice during behavioral experiments (mean±SEM) was as follows: Catwalk-9.23±0.15, grooming-10±0.15, social approach-10.5±0.12, odor-discrimination-12.12±0.13, hanging-wire-13±0.14, hotplate-13.18±0.13. Group size was determined following previous experiments (12). Pups were randomly allocated to either the NAP or DD group according to sex and genotype. […]
Novel object recognition: Briefly, the open field test was used for the first day of habituation since both tests are conducted in the same arena. […] The time spent sniffing/touching each object was measured using the EthoVision XT video tracking system and software (Noldus Inc. Leesburg, VA). Data were analyzed using the discrimination capacity formula: D2=(b−a)/(a+b), where ‘a’ designated the time of exploration of the familiar object and ‘b’ designated the time of exploration of the novel object.
Social approach: A plexiglas box was divided into three adjacent chambers, each 20 cm (length)×40.5 cm (width)×22 cm (height), separated by two removable doors. […] The next day, each subject mouse was tested in an experiment with three phases, (measured with a simple timer): I and II (5 minutes long), the habituation phases (ensuring no bias), and III (10 minutes long), the experimental phase. […]

Another assay relates to Tyr-GFP mice. Nature of the assay: Dendritic spine quantitation. On the set-up: key to NAP efficacy: synaptic structural alterations: corrections by NAP treatment (+). The method, then: Spine quantitation—For determination of dendritic spine morphology, the Tyr-GFP mouse model was used and generated as described(12). 1.5-2-month-old Tyr-GFP-mice were treated for 9 consecutive days with either intraperitoneal NAP injection (0.4 μg/0.1 ml saline) or with 0.1 ml saline. On day 9, mice were perfused, and brains were subjected to immunohistochemistry and imaging (12).

Assay [2] relates to Tyr mice. Nature of the assay: Fecal microbiota real-time PCR loads. On the set-up: key to NAP efficacy: microbiota: corrections by NAP treatment (+). On the procedure: Microbiome—Fecal samples were collected from 12.2±0.19-week-old mice. Samples were prepared and analyzed as previously described (57). Microbiome data was analyzed after applying the logarithmic transformation.
On the technique in general: In qPCR the cycle at which signal appears reflects the starting amount.

Where [3] appears, read: Tyr mouse, first symbol of cell.
Where [4] appears, read: males and WT females, data not shown.

Take `CC[C@H](C)[C@H](NC(=O)[C@H](CO)NC(=O)[C@@H](NC(=O)[C@@H]1CCCN1C(=O)[C@H](C)NC(=O)[C@@H](N)CC(N)=O)C(C)C)C(=O)N1CCC[C@H]1C(=O)N[C@@H](CCC(N)=O)C(=O)O` [NAP, NAPVSIPQ]: the Odor discrimination result in the assay on Tyr mice [1] (Tyr mice, daily intranasal NAP, data not shown) is given as “NAP reversal in females”. Moreover, the “NAP efficacy: cognitive impairments, behavioral deficits” value in the assay with Tyr mice [1] (Tyr mouse (odor), first symbol of cell) was “+(odor)/+(8)”. Further, in the assay on Tyr mice [1] (WT mice, data not shown), the “Behavioral, motor, social and sensory traits” value is on record as “varied minor effects”. In the assay on Tyr-GFP mice (setting [3]), the “NAP efficacy: synaptic structural alterations” value is “+/+”. In addition, in the assay on Tyr-GFP mice (female Tyr mice), the “Mushroom shaped spine density, motor cortex” value was “significantly affecting” and the “PSD95 volume in the hippocampus” value is given as “complete resolution”. The “Increase in motor cortex L5 layer spine density” value in the assay with Tyr-GFP mice (female Tyr mice, i.p. NAP, 9 days) is on record as around 17%. In addition, the “Hippocampal total spines and subtypes” value with Tyr-GFP mice (females and WT males, data not shown) is recorded as “no genotype or treatment changes in females or treatment effect on WT males”. The “Increase in CA1 hippocampal dendritic spine density” value with Tyr-GFP mice (male Tyr mice, i.p. NAP 0.4 μg/0.1 ml saline, 9 days) is on record as around 23%. Moreover, in the assay with Tyr-GFP mice (setting [4]), the “Motor cortex spine density” value was “No genotype or treatment changes were observed in males and no treatment effect was found on WT females”; the “Motor cortex spine subtypes” value is reported as “No NAP effect”. The “NAP efficacy: microbiota” value in the assay with Tyr mice [2] (setting [3]) is given as “+/+”. Moreover, the “EubV3, BIF, Lacto, Entero loads” value with Tyr mice [2] (WT mice) is “no effect on WT mice”. The “Clostridium coccoides group (gCcoc) and Mouse intestinal Bacteroides (MIB) loads” value with Tyr mice [2] (WT mice, data not shown) is “other varying effects”. The “Bifidobacterium genus (BIF) load” value with Tyr mice [2] (female Tyr mice) was “NAP correction”. The “Total eubacterial load (EubV3)” value in the assay on Tyr mice [2] (male Tyr mice) was “corrected with NAP treatment”.
